The source of these data is ChEMBL document CHEMBL1127015, “Centrally acting serotonergic and dopaminergic agents. 1. Synthesis and structure-activity relationships of 2,3,3a,4,5,9b-hexahydro-1H-benz[e]indole derivatives” (J Med Chem, 1993).

Values joined by “and” are separate entries in the source; they are usually repeats but may differ in a detail not shown here. Equal values may be shown once. Some results are limits rather than exact numbers.

The test system of assay [1] is Mus musculus. The experiment in a line: Antagonism of apomorphine effects in reserpinized mice following 0.4 umol/kg i.p. Format: functional.
The test system of assay [2] is Mus musculus. The experiment in a line: Antagonism of apomorphine for 0-10 minutes in reserpinized mice when a dose of 37 micro mol/kg is administered intraperitoneally. In kind it is functional.
For assay [3], the system named is Rattus norvegicus. In words: Inhibition of firing rates of dopaminergic neurons in the substantia nigra pars compacta by intravenous injection in rats. In kind it is functional. Conditions: Rattus norvegicus, Substantia nigra pars compacta, iv; read-out: ED50.
The subject of assay [4] is Mus musculus. The experiment in a line: Antagonism of apomorphine in reserpinized mice when a dose of 37 micro mol/kg is administered intraperitoneally. Format: functional.
The subject of assay [5] is Mus musculus. In words: Antagonism of apomorphine effects for 10-20 minutes in reserpinized mice following 0.4 umol/kg i.p. Format: functional.
Assay [6] has as its system Mus musculus. In words: Antagonism of apomorphine in reserpinized mice when a dose of 3.7 micro mol/kg is administered intraperitoneally. Format: functional.
For assay [7], the system named is Mus musculus. The experiment in a line: Antagonism of apomorphine effects for 0-10 minutes in reserpinized mice following 0.4 umol/kg i.p. Further details: unit not given beside the values. Format: functional.
Assay [8] has as its system Mus musculus. The experiment in a line: Antagonism of apomorphine for 10-20 minutes in reserpinized mice when a dose of 3.7 micro mol/kg is administered intraperitoneally. In kind it is functional.
For assay [9], the system named is Mus musculus. In words: Ability to stimulate dopaminergic systems by effect on locomotor activity in reserpinized mice when a dose of 3.7 micro mol/kg is administered intraperitoneally. Format: functional.
The test system of assay [10] is Mus musculus. In words: Antagonism of apomorphine for 0-10 minutes in reserpinized mice when a dose of 3.7 micro mol/kg is administered intraperitoneally. In kind it is functional.
In assay [11] the target is T1, D(2) dopamine receptor (Rattus norvegicus, UniProt P61169). In words: Binding affinity against [3H]raclopride-labeled dopamine receptor D2 in rat striatum. Format: tissue-based.
T1 sequence (P61169 whole entry): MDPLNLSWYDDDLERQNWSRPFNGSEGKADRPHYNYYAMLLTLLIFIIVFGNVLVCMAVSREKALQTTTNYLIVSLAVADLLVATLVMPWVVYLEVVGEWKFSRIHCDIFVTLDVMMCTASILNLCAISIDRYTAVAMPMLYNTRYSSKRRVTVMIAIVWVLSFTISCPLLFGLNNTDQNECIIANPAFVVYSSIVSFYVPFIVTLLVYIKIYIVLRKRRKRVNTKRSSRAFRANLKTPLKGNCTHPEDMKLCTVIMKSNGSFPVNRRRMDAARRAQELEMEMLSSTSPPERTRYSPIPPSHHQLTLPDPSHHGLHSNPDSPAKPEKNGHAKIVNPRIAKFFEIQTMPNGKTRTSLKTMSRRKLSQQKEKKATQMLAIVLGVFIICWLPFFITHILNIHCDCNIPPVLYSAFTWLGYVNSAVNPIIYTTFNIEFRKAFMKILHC
In assay [12] the test system is Mus musculus. In words: Antagonism of apomorphine for 10-20 minutes in reserpinized mice when a dose of 37 micro mol/kg is administered intraperitoneally. In kind it is functional.
Assay [13] concerns Mus musculus. The experiment in a line: Ability to stimulate dopaminergic systems by effect on locomotor activity in reserpinized mice when a dose of 37 micro mol/kg is administered intraperitoneally. In kind it is functional.
Assay [14] deals with T2, D(2) dopamine receptor (Homo sapiens, UniProt P14416). The experiment in a line: Binding affinity against [3H]U-86,170-labeled dopamine receptor D2 in cloned CHO cells. Format: cell-based.
T2 sequence (P14416 whole entry): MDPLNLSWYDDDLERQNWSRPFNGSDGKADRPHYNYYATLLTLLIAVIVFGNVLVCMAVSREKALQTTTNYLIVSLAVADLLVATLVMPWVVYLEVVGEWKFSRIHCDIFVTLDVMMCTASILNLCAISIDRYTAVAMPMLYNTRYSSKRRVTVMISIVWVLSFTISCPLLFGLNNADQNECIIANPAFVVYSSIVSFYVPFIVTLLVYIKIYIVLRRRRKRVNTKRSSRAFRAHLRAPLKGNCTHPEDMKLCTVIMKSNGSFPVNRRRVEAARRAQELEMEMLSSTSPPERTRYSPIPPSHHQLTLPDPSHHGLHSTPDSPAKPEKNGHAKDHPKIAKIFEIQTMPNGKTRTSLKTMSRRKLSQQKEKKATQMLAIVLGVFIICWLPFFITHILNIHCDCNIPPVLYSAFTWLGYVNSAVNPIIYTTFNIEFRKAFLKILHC
In assay [15] the target is T2, D(2) dopamine receptor. The experiment in a line: Intrinsic activity from GTP shift using membranes from CHO cells transfected with mammalian dopamine receptor D2. In kind it is cell membranes.
In assay [16] the test system is Mus musculus. In words: Increase in locomotor activity in reserpinized mice following 0.4 umol/kg i.p. In kind it is functional.
The species entered for assay [17] is Rattus norvegicus. The experiment in a line: Effect on the synthesis rates of serotonin (5-HTP accumulation) in the rat ventral limbic brain region at 10.2uMkg. Format: functional, Limbic system.
For assay [18], the system named is Rattus norvegicus. In words: Effect on the synthesis rates of serotonin in the rat ventral limbic brain region at 12 micro mol/kg. Format: functional, Limbic system.
The test system of assay [19] is Mus musculus. In words: Maximum decrease in temperature when compound is administered through peroral route. Format: functional.
The subject of assay [20] is Mus musculus. In words: Effective dose on hypothermia in mouse when administered subcutaneously. In kind it is functional. Conditions: sc.
Assay [21] concerns Felis catus. The experiment in a line: Maximum decrease of sympathetic nerve activity (SND) in anesthetized cat. Further details: scale not given: the % may be the effect or the level left. Format: functional.
Assay [22] concerns Mus musculus. The experiment in a line: Effective dose on hypothermia in mouse when administered through peroral route. Conditions: po. Format: functional.
The species named for assay [23] is Felis catus. In words: Percent of arterial blood pressure at sympathetic nerve activity (SND) dose value was determined. In kind it is functional.
Assay [24] concerns Mus musculus. The experiment in a line: Maximum decrease in temperature when compound is administered subcutaneously. In kind it is functional.
Assay [25] concerns Rattus norvegicus. In words: Inhibition of firing rates of serotonergic neurons in the dorsal raphe nucleus by intravenous injection in rats. In kind it is functional.
Assay [26] deals with Felis catus. The experiment in a line: Maximum decrease of arterial blood pressure at sympathetic nerve activity (SND) in anesthetized cat has been observed following 1 mg/kg dose. In kind it is functional. Also on record: scale not given: the % may be the effect or the level left.
Assay [27] has as its target T1, D(2) dopamine receptor. The experiment in a line: Inhibitory concentration against [3H]raclopride-labeled dopamine receptor D2 in rat striatum. In kind it is tissue-based.
Assay [28] has as its system Rattus norvegicus. The experiment in a line: Effect on the synthesis rates of dopamine in the rat ventral limbic brain region at 12 micro mol/kg. Format: functional, Limbic system.
Assay [29] concerns Felis catus. In words: Effective dose at which the sympathetic nerve activity (SND) has been reduced to 50% of the pretreatment value in anesthetized cat. Format: functional.
The test system of assay [30] is Mus musculus. The experiment in a line: Time of effect in the isolation-induced aggression behavioral assay in the mouse when a dose of 3.4 micro mol/kg is administered intraperitoneally. Format: functional.
The test system of assay [31] is Mus musculus. In words: Time of effect in the isolation-induced aggression behavioral assay in the mouse when a dose of 10 micro mol/kg is administered intraperitoneally. In kind it is functional.
Assay [32] has as its system Rattus norvegicus. In words: Inhibition of firing rates of serotonergic neurons in the dorsal raphe nucleus by intravenous injection in rats. Format: functional.
Assay [33] concerns Felis catus. The experiment in a line: Maximum decrease of sympathetic nerve activity (SND) in anesthetized cat has been expressed as percent control. In kind it is functional. Also on record: scale not given: the % may be the effect or the level left.
The test system of assay [34] is Mus musculus. The experiment in a line: Time of effect in the face-to-face behavioral assay in the mouse when a dose of 34 micro mol/kg is administered subcutaneously. In kind it is functional.
The subject of assay [35] is Mus musculus. The experiment in a line: Time of effect in the face-to-face behavioral assay in the mouse when a dose of 0.0 micro mol/kg is administered subcutaneously. Format: functional.
The species named for assay [36] is Rattus norvegicus. In words: Effect on the synthesis rates of serotonin (5-HTP accumulation) in the rat ventral limbic brain region at 10.6uMkg. Format: functional, Limbic system.
Assay [37] is filed under the species Rattus norvegicus. In words: Effect on the synthesis rates of serotonin (5-HTP accumulation) in the rat ventral limbic brain region at 10.6uMkg. Format: functional, Limbic system.
Assay [38] has as its system Rattus norvegicus. In words: Effect on the synthesis rates of serotonin in the rat ventral limbic brain region at 2.7 micro mol/kg. In kind it is functional, Limbic system.

Usually ED50 stands for the dose at which the effect has come halfway, by size or by number of responders. By Ki is commonly meant the equilibrium dissociation constant of an inhibitor or competing ligand from its target. Usually IC50 stands for the concentration that inhibits the measured activity by half.

For the compound `CCCN1CC[C@@H]2c3cccc(O)c3CC[C@H]21` (racemic), the Locomotor activity in assay [1] is 72; in [2], 6; in [4], 4; in assay [5], 86; in assay [6], 46; in [7] it was 54. Further, the Locomotor activity in assay [8] turned out to be 47; in assay [9], 2; in assay [10] it was 34; in assay [12] it was 5; in assay [13] it was 162; in assay [16], 63. In [3], the ED50 was 0.43 µmol/kg. Further, the Ki was found to be 33 nM in assay [11] and 93 nM in assay [14]. Besides, the Intrinsic activity in assay [15] was found to be 28%.
As to `COc1cccc2c1CC[C@@H]1[C@H]2CCN1CC1CC1` (racemic), in [17], the Control was -15% and -7%. This compound also gave an inhibition constant (Ki) in assay [11] greater than 10000 nM.
With `C=CCN1CC[C@H]2c3ccccc3CC[C@H]21` (racemic), the Control is recorded as -46% in assay [18], 0% in assay [21], 60% in assay [26] and 20% in assay [28]. Also, the Max temperature decrease in assay [19] was determined as 4; in [24] it was 4.4. The ED50 in [20] was found to be 22 µmol/kg; in assay [22], 69 µmol/kg; in [25] it was 0.12 µmol/kg; in assay [29], 0.36 µmol/kg. The compound further showed a BP in [23] of 76%. In [27], this compound registered an IC50 greater than 1000 nM.
As to `CCCN1[C@H](C)CC2c3c(cccc3OC)CC[C@H]21` (mixture of isomers), the Time in [30] is on record as 17 s; in assay [31], 8 s; in [34], 1.5 s; in [35] it was 0.6 s. In addition, the Max temperature decrease in [19] amounted to 2.4; in assay [24] it was 5.2. Further, the ED50 in [20] was determined as 19 µmol/kg; in assay [32], 0.1 µmol/kg; in assay [3], 1.7 µmol/kg; in [22] it was 104 µmol/kg. In addition, the Control in assay [33] came to 250%; in assay [26], 65%. For the same compound, the IC50 in assay [27] was greater than 1000 nM.
Turning to `CCCN1CC[C@H]2c3cccc(OC)c3CC[C@H]21` (racemic), the Control in assay [36] was found to be 7%; in [37], 34%.
Regarding `O=C(CCCN1CCC(O)(c2ccc(Cl)cc2)CC1)c1ccc(F)cc1` [HALOPERIDOL], the Control in assay [38] is -7%.
